Data published in patent US20090196912A1, “Pyridinylamines” (GPC Botech AG, priority 2004, published 2009).

Key:
RIP = target: T1, RIP (Homo sapiens, UniProt Q13546); assay: Generic kinase assay (33P-ATP, Myelin Basic Protein); assay type: biochemical; settings: class symbol: % inhibition at 10 μM or IC50
T1 sequence (Q13546 1-671): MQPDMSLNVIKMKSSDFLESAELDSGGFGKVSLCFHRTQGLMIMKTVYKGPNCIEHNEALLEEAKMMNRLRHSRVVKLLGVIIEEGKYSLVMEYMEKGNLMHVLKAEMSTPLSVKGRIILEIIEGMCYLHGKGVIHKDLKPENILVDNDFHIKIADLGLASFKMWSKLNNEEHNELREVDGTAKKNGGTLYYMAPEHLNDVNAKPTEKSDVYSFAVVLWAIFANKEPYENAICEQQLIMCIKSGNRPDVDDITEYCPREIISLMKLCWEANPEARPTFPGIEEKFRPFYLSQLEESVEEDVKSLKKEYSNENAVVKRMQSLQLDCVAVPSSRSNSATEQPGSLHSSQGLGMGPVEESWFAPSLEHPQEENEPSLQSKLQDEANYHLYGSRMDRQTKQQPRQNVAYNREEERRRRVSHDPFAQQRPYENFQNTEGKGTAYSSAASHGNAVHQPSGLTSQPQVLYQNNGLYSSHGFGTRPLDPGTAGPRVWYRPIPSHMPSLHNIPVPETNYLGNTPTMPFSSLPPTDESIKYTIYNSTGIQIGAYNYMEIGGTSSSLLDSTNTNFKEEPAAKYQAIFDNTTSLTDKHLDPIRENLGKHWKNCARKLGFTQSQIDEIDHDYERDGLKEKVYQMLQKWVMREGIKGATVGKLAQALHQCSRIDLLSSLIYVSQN
In short: (§1)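 Myelin basic protein was phosphorylated with [γ-33P]ATP plus unlabelled ATP (4 µM in the three-fold concentrated mix) in Tris-HCl pH 7.5, MgCl2 and DTT. Kinase was titrated to about 10% ATP turnover, and reactions ran 1 h at room temperature before EDTA stop. Incorporated 33P was captured on filter plates washed with 0.75% H3PO4 and counted by scintillation.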

RICK = RICK (Homo sapiens, UniProt O43353); assay: as above; assay type: biochemical; settings: 1 h; class symbol: % inhibition at 10 μM or IC50; read-out: Inhibitory effect on target RICK
RICK, sequence (O43353 whole entry, species assumed): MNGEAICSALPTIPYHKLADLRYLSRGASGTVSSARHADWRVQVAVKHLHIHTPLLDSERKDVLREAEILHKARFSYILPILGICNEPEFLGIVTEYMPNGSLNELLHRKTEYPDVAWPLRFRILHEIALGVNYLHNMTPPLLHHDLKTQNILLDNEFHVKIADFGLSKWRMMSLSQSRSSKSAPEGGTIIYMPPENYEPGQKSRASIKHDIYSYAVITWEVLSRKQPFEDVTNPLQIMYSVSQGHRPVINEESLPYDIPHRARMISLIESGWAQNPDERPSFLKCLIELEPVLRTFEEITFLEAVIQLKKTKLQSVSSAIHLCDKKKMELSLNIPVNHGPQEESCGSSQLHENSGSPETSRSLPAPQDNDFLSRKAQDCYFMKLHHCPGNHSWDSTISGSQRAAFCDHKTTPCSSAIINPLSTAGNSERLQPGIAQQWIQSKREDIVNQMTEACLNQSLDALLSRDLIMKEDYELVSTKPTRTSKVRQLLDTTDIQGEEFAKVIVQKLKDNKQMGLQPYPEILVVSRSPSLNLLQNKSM
In short: as §1

inhibition at 10 µM (RICK): 50 to 90%
Structure (SMILES): Clc1cccc(Nc2cncc(-c3ccncc3)c2)c1 [Compound 166, [3,4′]Bipyridinyl-5-yl-(3-chloro-phenyl)-amine]
Inhibitory effect on target RIP (RIP): A (A: 50-90% inhibition at 10 μM enzyme concentration)
